# Data as given in patent publication US10064843B2, “Bis-amide derivative and use thereof” (University-Industry Cooperation Group of Kyung Hee …, priority 2013, dated 2018).
# Where two headings read alike, the source gives them in different places.
# What was measured:
# HCV replicon cell = assay: Combined treatment: HCV replicon RNA level by qRT-PCR, synergy analysis; format: cell-based, hepatitis C virus; settings: in combination with telaprevir, IFN-α, or ribavirin vs. each alone; FIG. 16
# Experimental: (§1) Example 19: Real-Time Quantitative Reverse Transcriptase PCR Analysis
# (§2) Real-time quantitative reverse transcriptase PCR (qRT-PCR) was performed using SYBR Green PCR Master Mix (Invitrogen/Applied Biosystem, Carlsbad, Calif., USA) and ABI Prism 7300 Real-time PCR System (Applied Biosystems, Carlsbad, Calif., USA) according to the manufacturer's instructions. Calculations were performed based on […] method using the following equation: R (ratio)=2-[ΔCT (sample)-ΔCT (control group)]. The data were expressed as fold change of the treated group relative to the control group and standardized relative to the glyceraldehyde 3-phosphate dehydrogenase (GAPDH) level.
# Example 20: Synergy Analysis
# In order to confirm whether the combination between NIM811 and IFN-α, ribavirin, or telaprevir is synergistic, additive, or antagonistic, the combination index (CI) was calculated using the CalcuSyn Software (Biosoft). In fact, the combination is additive when CI=1.0, synergistic when CI<1.0, and antagonistic when CI>1.0.
# calcineurin = assay: Calcineurin phosphorylase analysis in splenocytes; format: cell-based, mouse; settings: FIG. 8b
# Experimental: Example 6: Analysis of Calcineurin Phosphorylase
# Dephosphorylation of RH phosphopeptide was measured using calcineurin cell activity assay kit (Enzo Life sciences, Plymouth Meeting, Pa., USA) to determine calcium-dependent activity of calcineurin. Splenocytes (2×10^6/well) were incubated along with or WJCPA-126 for 20 hours, and further untreated or stimulated with 1 μg/mL of ionomycin (Calibiochem, La Jolla, Calif., USA). Then, the cells were used for the measurement of calcineurin activity.
# IL-2 production = assay: IL-2 concentration by ELISA in splenocytes; format: cell-based, mouse; settings: up to 10 μM; FIG. 9c
# Experimental: Upon incubation, the cultures from three different wells were collected and IL-2 concentration was analyzed by ELISA according to the protocol by Enzo life Science (Plymouth Meeting, Pa., USA). IL-2 concentration was calculated based on the IL-2 standard solution.
# CypA [1] = target: T1, CypA (Homo sapiens, UniProt P62937); assay: PPIase activity of CypA, coupled chymotrypsin analysis; format: biochemical
# T1 construct: GST (N, cleaved yes); made in house; host or cells: E. coli (pGEX-KG)
# Experimental: Example 5: Analysis of Peptidyl-Prolyl Cis-Trans Isomerase Activity
# The PPIase activity of CypA was determined according to a known method using the coupled chymotrypsin analysis.
# The cis-trans isomerization was measured by absorbance at 390 nm in a spectrophotometer. Additionally, the remaining percentage of enzyme activity was measured at different concentrations of the inhibitor to calculate the 50% inhibition concentration (IC50) to the PPIase activity. Data was optimized via graphs by exporting using Graph Pad Prism 5.
# CypA [2] = target: T1, CypA; assay: 2D 1H TOCSY NMR of the WJCPA-126 and CypA complex; format: binding; settings: FIG. 4
# Excerpt: In the spin system of […],[…], and […] of CypA, the connectivity was shown in yellow-, green-, and red solid lines. […] From the above result, it was confirmed that the bis-amide compounds of the present invention can specifically bind to […],[…], and […] residues of CypA thereby inhibiting the PPIase activity of CypA.
# CypA and NS5A or NS5B = target: T2, CypA and NS5A or NS5B (Homo sapiens, UniProt P62937); assay: Co-immunoprecipitation and mammalian two-hybrid analysis of CypA with NS5A or NS5B; format: cell-based; settings: FIG. 13a, 13b
# T2 construct: 1 mg/mL of HCV Con1b replicon protein lysate; endogenous in cells; host or cells: Huh7 cells carrying the HCV Con1b subgenomic replicon
# Experimental: Example 17: Co-Immunoprecipitation Assay
# For co-immunoprecipitation, 4 μg of specific antibody and 1 mg/mL of HCV Con1b replicon protein lysate to a final volume of 500 μL were rotated at 4° C. for 4 hours. Then, 20 μL of the washed protein A/G PLUS agarose (Santa Cruz, Calif., USA) was added thereto and incubated at 4° C. overnight. Subsequently, the sample was washed 3 times with Triton-wash-buffer, resuspended, and denatured in 5×SDS-PAGE buffer at 95° C. for 5 minutes. The resultant was centrifuges at 19,000 g for 1 minute at 4° C. and subjected to western blot analysis.
# Example 18: Mammalian Two-Hybrid System
# The interaction between intracellular CypA-NS5A and CypA-NS5B was confirmed by the two-hybrid screening technology using CheckMate™ mammalian two-hybrid system (Promega, Madison, Wis., USA) according to the manufacturer's instructions. In brief, pACT- and pBIND-based plasmids were co-transfected (TurboFect, FermentasC) to Huh7 cells along with a pG5luc reporter construct, and incubated at 37° C. After 72 hours, the cell lysate was analyzed regarding the luciferase activity.
# [3] = test system: genotype 2a (JFH1) replication cells; assay: microbe, parasite or virus in culture; format: cell-based, hepatitis C virus; settings: Hepatitis C virus
# in vitro = format: cell-based, hepatitis C virus; settings: genotype 2a JFH1; FIG. 11b
# IL-8 = IL-8 mRNA and IL-8 ELISA in HCV replicon cell; format: cell-based, human; settings: 2 μM
# Experimental: (§3) Example 11: Determination of IL-8 and INF-α Concentrations in Cell Culture Media by ELISA
# (§4) Upon incubation, the cell culture media were collected and the IL-8 and IFN-α concentrations were analyzed according to the protocol of eBioscience (San Diego, Calif., USA) by ELISA.
# as §1, §2
# IFN-α = IFN-α mRNA and IFN-α ELISA in HCV replicon cell; format: cell-based, human
# Experimental: as §3, §4, §1, §2
# CypA [4] = target: T1, CypA; assay: SPR binding of WJCPA-126 or CsA to CypA
# Experimental: Example 4: Molecular Docking Analysis by Surface Plasmon Resonance (SPR)
# CypA protein was fixed on the sensor chip surface via free amine coupling by injecting a mixture of 0.1 M 1-ethyl-3-(3-dimethylaminopropyl) carboimidehydrochloride and 0.05 M N-hydroxysuccinimide thereon, and the extra activated carboxylic acid was inhibited using 1M ethanolamine (pH 8.5). The second reference cell was treated similarly while excluding the target protein. All working peptide dilutions were prepared in running buffer (PBS containing 0.2% DMSO) and injected at a rate of 30 μL/min for 3 minutes (association time) and dissociation phase was performed for 3 minutes. Nonspecific background was substracted from each sensogram using SPR_V4017 data collection and alignment program (Reichert, Depew, N.Y.). […] Optimum kinetic parameters were obtained by global fitting analysis using Scrubber2 (Biologic Software, Australia).
# Experimental for Toxicity in BALB/c mice: The experimental animals were divided into three groups (n=5) and one of the groups was used as the untreated control group. […] Fourteen days after the administration, blood samples were collected from the treat groups and the control group, respectively. The weight of experimental mice was measured for the evaluation of systemic toxicity in mice. For the confirmation of hepatotoxicity, the AST and ALT activities were measured according to the manufacturer's protocols applied to a 96-well microplate using the GOT-GPT kit (Asan Pharm, Korea). The analysis results regarding the AST and ALT activities were shown in IU/L units. For the confirmation of nephrotoxicity, the blood urea nitrogen (BUN) was measured using the Blood Urea Nitrogen Enzymatic Assay kit (Bioo Scientific, Austin, Tex., USA), and the creatine level in the serum was measured using the Mouse Creatine Assay kit (Crystal Chem, Inc., Downers Grove, Ill., USA).
# T1 sequence (P62937 whole entry): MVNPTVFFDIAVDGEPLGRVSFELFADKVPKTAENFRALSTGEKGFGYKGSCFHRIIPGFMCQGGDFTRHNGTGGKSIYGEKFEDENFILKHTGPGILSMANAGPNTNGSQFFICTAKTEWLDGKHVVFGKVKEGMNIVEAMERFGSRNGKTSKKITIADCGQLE
# T2 sequence (P62937 whole entry): as above
structure (smiles),measurement,setting,value
"COc1cc(C(C(=O)NC2CCCCC2)N(C(=O)Cc2c[nH]c3ccccc23)c2ccc(C(C)C)cc2)cc(OC)c1OC (stereo not shown) [WJCPA-126, N-cyclohexyl-2-[(2-1H-indol-3-yl-acetyl)-(4-isopropyl-phenyl)-amino]-2-(3,4,5-trimethoxy-phenyl)-acetamide]",levels of HCV-specific RNA and IL-8 in combined treatment,HCV replicon cell,synergistic decrease
same,effect on ionomycin-stimulated calcineurin phosphorylase activity,calcineurin,no inhibitory effect
same,ionomycin-induced IL-2 production,IL-2 production,did not show any inhibitory activity
same,inhibitory effect against the PPIase activity of CypA,"CypA [1]; 1 μM, 20 nM CypA, FIG. 3a",strong inhibitory effect
same,IC50,"CypA [1]; FIG. 3b, read-out: IC50 PPIase activity",3.5 nM
same,IC50,"CypA [1]; FIG. 7a, read-out: IC50 PPIase activity of CypA",3.6 nM
same,binding residues of CypA by NMR,CypA [2],"binds to Arg 55, Trp 121, and Phe 113 residues of CypA"
same,interactions between CypA and NS5A or NS5B,CypA and NS5A or NS5B,destroys the interactions between CypA and NS5A or NS5B
same,EC50,[3],1100 ± 50 nM
same,CC50,in vitro,22300 ± 4230 nM
same,serum ALT and AST,"Toxicity in BALB/c mice; 50 mg/kg for 2 weeks, FIG. 17b, 17c",No difference was observed
same,"safety parameters (body weight, serum ALT, AST, BUN, creatinine)","Toxicity in BALB/c mice; 50 mg/kg intraperitoneally daily, 14 days, FIG. 17",did not induce any noticeable change on safety parameters
same,mRNA level of IL-8,IL-8; FIG. 15b,significant reduction of mRNA level of IL-8 in a time-dependent manner
same,IL-8 production (ELISA),IL-8; FIG. 15c,significantly reduces the expression of IL-8 production
same,mRNA level of IFN-α,"IFN-α; 48 hours after the treatment, FIG. 15d",cannot control the mRNA level of IFN-α
same,IFN-α production (ELISA),IFN-α; FIG. 15e,significantly increase the IFN-α production
same,Koff (dissociation rate),CypA [4]; SPR,6.0×10^−4 S^−1
same,Kon,CypA [4]; SPR,8.2×10^3 M^−1 S^−1
same,Kd,"CypA [4]; SPR-based kinetic analysis, CypA",520 nM
